{
  "source": "patent US10428051B2",
  "about": "(priority 2015, dated 2019)",
  "target": "human σ1 receptor (Homo sapiens, UniProt Q99720)",
  "sequence (Q99720 whole entry)": "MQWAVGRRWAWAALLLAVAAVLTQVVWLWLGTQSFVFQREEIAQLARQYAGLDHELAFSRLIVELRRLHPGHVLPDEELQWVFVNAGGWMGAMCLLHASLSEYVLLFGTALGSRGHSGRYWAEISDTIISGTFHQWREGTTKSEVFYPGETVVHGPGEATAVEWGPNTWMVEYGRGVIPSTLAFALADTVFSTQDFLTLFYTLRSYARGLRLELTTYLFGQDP",
  "assay": "biochemical",
  "assay_type": "binding",
  "parameters": "μ and σ1 dual (binding to the σ1 receptor and the μ-opioid receptor expressed as Ki): key to the marks not given beside the values",
  "note": "pKi: −log10 of the molar value.",
  "data": [
    {"smiles": "CCC(=O)N(CC1(N2CCN(Cc3ncccc3F)CC2)CC1)c1ccccc1", "note": "[Example 120, N-((1-(4-((3-fluoropyridin-2-yl)methyl)piperazin-1-yl)cyclopropyl)methyl)-N-phenylpropionamide]", "values": [
      {"measurement": "pKi", "value": "< 6.30"}
    ]},
    {"smiles": "CCC(=O)N(CC1(N2CCN(Cc3ccc(F)cn3)CC2)CC1)c1ccccc1", "note": "[Example 121, N-((1-(4-((5-fluoropyridin-2-yl)methyl)piperazin-1-yl)cyclopropyl)methyl)-N-phenylpropionamide]", "values": [
      {"measurement": "pKi", "value": "< 6.30"}
    ]},
    {"smiles": "CCC(=O)N(CC1(N2CCN(Cc3cncc(F)c3)CC2)CC1)c1ccccc1", "note": "[Example 122, N-((1-(4-((5-fluoropyridin-3-yl)methyl)piperazin-1-yl)cyclopropyl)methyl)-N-phenylpropionamide]", "values": [
      {"measurement": "pKi", "value": "> 6.30"}
    ]},
    {"smiles": "CCC(=O)N(CC1(N2CCN(CC(C)C)CC2)CC1)c1cccc(C(F)(F)F)n1", "note": "[Example 123, N-((1-(4-isobutylpiperazin-1-yl)cyclopropyl)methyl)-N-(6-(trifluoromethyl)pyridin-2-yl)propionamide]", "values": [
      {"measurement": "pKi", "value": "> 7.00"}
    ]},
    {"smiles": "CCC(=O)N(CC1(N2CCN(CCC(C)C)CC2)CC1)c1cccc(C(F)(F)F)n1", "note": "[Example 124, N-((1-(4-isopentylpiperazin-1-yl)cyclopropyl)methyl)-N-(6-(trifluoromethyl)pyridin-2-yl)propionamide]", "values": [
      {"measurement": "pKi", "value": "> 7.00"}
    ]},
    {"smiles": "CCC(=O)N(CC1(N2CCN(Cc3ccc(C(=O)NC)cc3)CC2)CCOCC1)c1ccccc1", "note": "[Example 125, N-methyl-4-((4-(4-((N-phenylpropionamido)methyl)tetrahydro-2H-pyran-4-yl)piperazin-1-yl)methyl)benzamide]", "values": [
      {"measurement": "μ and σ1 dual (binding to the σ1 receptor and the μ-opioid receptor expressed as Ki)", "value": "++"}
    ]},
    {"smiles": "CCC(=O)N(CC1(N2CCN(CC(=O)N3CCCCC3)CC2)CCOCC1)c1ccccc1", "note": "[Example 127, N-((4-(4-(2-oxo-2-(piperidin-1-yl)ethyl)piperazin-1-yl)tetrahydro-2H-pyran-4-yl)methyl)-N-phenylpropionamide]", "values": [
      {"measurement": "pKi", "value": "< 6.30"}
    ]},
    {"smiles": "CCC(=O)N(CC1(N2CCN(Cc3ccc(C(=O)NC)cc3)CC2)CC1)c1ccccc1", "note": "[Example 131, N-methyl-4-((4-(1-((N-phenylpropionamido)methyl)cyclopropyl)piperazin-1-yl)methyl)benzamide]", "values": [
      {"measurement": "μ and σ1 dual (binding to the σ1 receptor and the μ-opioid receptor expressed as Ki)", "value": "++"}
    ]},
    {"smiles": "CCC(=O)N(CC1(N2CCN(CC(=O)N3CCCCC3)CC2)CC1)c1ccccc1", "note": "[Example 132, N-((1-(4-(2-oxo-2-(piperidin-1-yl)ethyl)piperazin-1-yl)cyclopropyl)methyl)-N-phenylpropionamide]", "values": [
      {"measurement": "μ and σ1 dual (binding to the σ1 receptor and the μ-opioid receptor expressed as Ki)", "value": "++"}
    ]},
    {"smiles": "CCC(=O)N(CC1(N2CCN(C(C)c3ccccc3)CC2)CCOCC1)c1ccccn1", "note": "(stereo not shown) [Example 134, N-((4-(4-(1-phenylethyl)piperazin-1-yl)tetrahydro-2H-pyran-4-yl)methyl)-N-(pyridin-2-yl)propionamide]", "values": [
      {"measurement": "μ and σ1 dual (binding to the σ1 receptor and the μ-opioid receptor expressed as Ki)", "value": "++"}
    ]},
    {"smiles": "CCC(=O)N(CC1(N2CCN(CC(C)C)CC2)CCOCC1)c1ccccc1", "note": "[Example 135, N-((4-(4-isobutylpiperazin-1-yl)tetrahydro-2H-pyran-4-yl)methyl)-N-phenylpropionamide]", "values": [
      {"measurement": "pKi", "value": "> 6.30"}
    ]},
    {"smiles": "CCC(=O)N(CC1(N2CCN(CCC(C)C)CC2)CCOCC1)c1cccc(C(F)(F)F)n1", "note": "[Example 137, N-((4-(4-isopentylpiperazin-1-yl)tetrahydro-2H-pyran-4-yl)methyl)-N-(6-(trifluoromethyl)pyridin-2-yl)propionamide]", "values": [
      {"measurement": "pKi", "value": "> 7.00"}
    ]},
    {"smiles": "CCC(=O)N(CC1(N2CCN(C(C)CC)CC2)CCOCC1)c1cccc(C(F)(F)F)n1", "note": "(stereo not shown) [Example 139, N-((4-(4-sec-butylpiperazin-1-yl)tetrahydro-2H-pyran-4-yl)methyl)-N-(6-(trifluoromethyl)pyridin-2-yl)propionamide]", "values": [
      {"measurement": "μ and σ1 dual (binding to the σ1 receptor and the μ-opioid receptor expressed as Ki)", "value": "++"}
    ]},
    {"smiles": "CCC(=O)N(CC1(N2CCN(CCOC(F)(F)F)CC2)CCOCC1)c1cccc(C(F)(F)F)n1", "note": "[Example 141, N-((4-(4-(2-(trifluoromethoxy)ethyl)piperazin-1-yl)tetrahydro-2H-pyran-4-yl)methyl)-N-(6-(trifluoromethyl)pyridin-2-yl)propionamide]", "values": [
      {"measurement": "pKi", "value": "> 6.30"}
    ]},
    {"smiles": "CCC(=O)N(CC1(N2CCN(CCO)CC2)CCOCC1)c1cccc(C(F)(F)F)n1", "note": "[Example 148, N-((4-(4-(2-hydroxyethyl)piperazin-1-yl)tetrahydro-2H-pyran-4-yl)methyl)-N-(6-(trifluoromethyl)pyridin-2-yl)propionamide]", "values": [
      {"measurement": "pKi", "value": "< 6.30"}
    ]},
    {"smiles": "CCOCCCN1CCN(C2(CN(C(=O)CC)c3cccc(C(F)(F)F)n3)CCOCC2)CC1", "note": "[Example 150, N-((4-(4-(3-ethoxypropyl)piperazin-1-yl)tetrahydro-2H-pyran-4-yl)methyl)-N-(6-(trifluoromethyl)pyridin-2-yl)propionamide]", "values": [
      {"measurement": "pKi", "value": "> 6.30"}
    ]},
    {"smiles": "CCC(=O)N(CC1(N2CCN(CC(C)C)CC2)CCOCC1)c1ccccn1", "note": "[Example 151, N-((4-(4-isobutylpiperazin-1-yl)tetrahydro-2H-pyran-4-yl)methyl)-N-(pyridin-2-yl)propionamide]", "values": [
      {"measurement": "pKi", "value": "< 6.30"}
    ]},
    {"smiles": "CCC(=O)N(CC1(N2CCN(CCOC(C)C)CC2)CCOCC1)c1ccccn1", "note": "[Example 152, N-((4-(4-(2-isopropoxyethyl)piperazin-1-yl)tetrahydro-2H-pyran-4-yl)methyl)-N-(pyridin-2-yl)propionamide]", "values": [
      {"measurement": "pKi", "value": "< 6.30"}
    ]},
    {"smiles": "CCC(=O)N(CC1(N2CCN(CCC(C)C)CC2)CCOCC1)c1ccccn1", "note": "[Example 153, N-((4-(4-isopentylpiperazin-1-yl)tetrahydro-2H-pyran-4-yl)methyl)-N-(pyridin-2-yl)propionamide]", "values": [
      {"measurement": "μ and σ1 dual (binding to the σ1 receptor and the μ-opioid receptor expressed as Ki)", "value": "++"}
    ]},
    {"smiles": "CCC(=O)N(CC1(N2CCN(C(C)CC)CC2)CCOCC1)c1ccccn1", "note": "(stereo not shown) [Example 154, N-((4-(4-sec-butylpiperazin-1-yl)tetrahydro-2H-pyran-4-yl)methyl)-N-(pyridin-2-yl)propionamide]", "values": [
      {"measurement": "pKi", "value": "< 6.30"}
    ]},
    {"smiles": "CCC(=O)N(CC1(N2CCN(CCC(C)C)CC2)CCOCC1)c1ncccc1F", "note": "[Example 155, N-(3-fluoropyridin-2-yl)-N-((4-(4-isopentylpiperazin-1-yl)tetrahydro-2H-pyran-4-yl)methyl)propionamide]", "values": [
      {"measurement": "pKi", "value": "> 6.30"}
    ]},
    {"smiles": "CCOCCN1CCN(C2(CN(C(=O)CC)c3ncccc3F)CCOCC2)CC1", "note": "[Example 156, N-((4-(4-(2-ethoxyethyl)piperazin-1-yl)tetrahydro-2H-pyran-4-yl)methyl)-N-(3-fluoropyridin-2-yl)propionamide]", "values": [
      {"measurement": "μ and σ1 dual (binding to the σ1 receptor and the μ-opioid receptor expressed as Ki)", "value": "++"}
    ]},
    {"smiles": "CCC(=O)N(CC1(N2CCN(CCOC(C)C)CC2)CCOCC1)c1ncccc1F", "note": "[Example 157, N-(3-fluoropyridin-2-yl)-N-((4-(4-(2-isopropoxyethyl)piperazin-1-yl)tetrahydro-2H-pyran-4-yl)methyl)propionamide]", "values": [
      {"measurement": "pKi", "value": "> 6.30"}
    ]},
    {"smiles": "CCC(=O)N(CC1(N2CCN(CC(C)C)CC2)CCOCC1)c1ncccc1F", "note": "[Example 158, N-(3-fluoropyridin-2-yl)-N-((4-(4-isobutylpiperazin-1-yl)tetrahydro-2H-pyran-4-yl)methyl)propionamide]", "values": [
      {"measurement": "μ and σ1 dual (binding to the σ1 receptor and the μ-opioid receptor expressed as Ki)", "value": "++"}
    ]},
    {"smiles": "CCC(=O)N(CC1(N2CCN(CCC(C)C)CC2)CCOC(C)(C)C1)c1cccc(C(F)(F)F)n1", "note": "(stereo not shown) [Example 159, N-((4-(4-isopentylpiperazin-1-yl)-2,2-dimethyltetrahydro-2H-pyran-4-yl)methyl)-N-(6-(trifluoromethyl)pyridin-2-yl)propionamide]", "values": [
      {"measurement": "pKi", "value": "> 7.00"}
    ]},
    {"smiles": "CCC(=O)N(CC1(N2CCN(CC(C)C)CC2)CCOC(C)(C)C1)c1cccc(C(F)(F)F)n1", "note": "(stereo not shown) [Example 160, N-((4-(4-isobutylpiperazin-1-yl)-2,2-dimethyltetrahydro-2H-pyran-4-yl)methyl)-N-(6-(trifluoromethyl)pyridin-2-yl)propionamide]", "values": [
      {"measurement": "pKi", "value": "> 6.30"}
    ]},
    {"smiles": "CCC(=O)N(CC1(N2CCN(CCOC(C)C)CC2)CCOC(C)(C)C1)c1cccc(C(F)(F)F)n1", "note": "(stereo not shown) [Example 161, N-((4-(4-(2-isopropoxyethyl)piperazin-1-yl)-2,2-dimethyltetrahydro-2H-pyran-4-yl)methyl)-N-(6-(trifluoromethyl)pyridin-2-yl)propionamide]", "values": [
      {"measurement": "pKi", "value": "> 6.30"}
    ]},
    {"smiles": "CCC(=O)N(CC1(N2CCN(C(C)CC)CC2)CCOC(C)(C)C1)c1cccc(C(F)(F)F)n1", "note": "(stereo not shown) [Example 162, N-((4-(4-sec-butylpiperazin-1-yl)-2,2-dimethyltetrahydro-2H-pyran-4-yl)methyl)-N-(6-(trifluoromethyl)pyridin-2-yl)propionamide]", "values": [
      {"measurement": "pKi", "value": "< 6.30"}
    ]},
    {"smiles": "CCC(=O)N(CC1(N2CCN(CCOC(C)C)CC2)CCOC(C)(C)C1)c1ccccn1", "note": "(stereo not shown) [Example 163, N-((4-(4-(2-isopropoxyethyl)piperazin-1-yl)-2,2-dimethyltetrahydro-2H-pyran-4-yl)methyl)-N-(pyridin-2-yl)propionamide]", "values": [
      {"measurement": "pKi", "value": "< 6.30"}
    ]},
    {"smiles": "CCC(=O)N(CC1(N2CCN(CCC(C)C)CC2)CCOC(C)(C)C1)c1ccccn1", "note": "(stereo not shown) [Example 164, N-((4-(4-isopentylpiperazin-1-yl)-2,2-dimethyltetrahydro-2H-pyran-4-yl)methyl)-N-(pyridin-2-yl)propionamide]", "values": [
      {"measurement": "μ and σ1 dual (binding to the σ1 receptor and the μ-opioid receptor expressed as Ki)", "value": "++"}
    ]},
    {"smiles": "CCOCCN1CCN(C2(CN(C(=O)CC)c3ccccn3)CCOC(C)(C)C2)CC1", "note": "(stereo not shown) [Example 165, N-((4-(4-(2-ethoxyethyl)piperazin-1-yl)-2,2-dimethyltetrahydro-2H-pyran-4-yl)methyl)-N-(pyridin-2-yl)propionamide]", "values": [
      {"measurement": "pKi", "value": "< 6.30"}
    ]},
    {"smiles": "CCC(=O)N(CC1(N2CCN(CC(C)C)CC2)CCOC(C)(C)C1)c1ccccn1", "note": "(stereo not shown) [Example 166, N-((4-(4-isobutylpiperazin-1-yl)-2,2-dimethyltetrahydro-2H-pyran-4-yl)methyl)-N-(pyridin-2-yl)propionamide]", "values": [
      {"measurement": "pKi", "value": "< 6.30"}
    ]},
    {"smiles": "CCC(=O)N(CC1(N2CCN(CCOC(C)C)CC2)CCOC(C)(C)C1)c1ncccc1F", "note": "(stereo not shown) [Example 167, N-(3-fluoropyridin-2-yl)-N-((4-(4-(2-isopropoxyethyl)piperazin-1-yl)-2,2-dimethyltetrahydro-2H-pyran-4-yl)methyl)propionamide]", "values": [
      {"measurement": "pKi", "value": "> 6.30"}
    ]},
    {"smiles": "CCC(=O)N(CC1(N2CCN(CCC(C)C)CC2)CCOC(C)(C)C1)c1ncccc1F", "note": "(stereo not shown) [Example 168, N-(3-fluoropyridin-2-yl)-N-((4-(4-isopentylpiperazin-1-yl)-2,2-dimethyltetrahydro-2H-pyran-4-yl)methyl)propionamide]", "values": [
      {"measurement": "μ and σ1 dual (binding to the σ1 receptor and the μ-opioid receptor expressed as Ki)", "value": "++"}
    ]}
  ]
}
